US20190350964A1, “ANTI-CANCER COMPOUNDS AND USES THEREOF” (NATIONAL UNIVERSITY OF SINGAPORE, priority 2016, published 2019)

Tests used:
[1] = tested on: normal BJ cells with activated H-RasV12-ER; assay: FACS subG1 in engineered BJ-derived fibroblasts; assay type: cell-based, human; details: 5 μM, 48 h
Description: Isogenic BJ human foreskin fibroblast cell lines, including non-transformed (normal) and transformed BJ cells and all gastric cancer cell lines, were kind gifts from Dr. Mathijs Voorhoeve and Dr. Patrick Tan (Duke-NUS), respectively and tested for mycoplasma infection. All other human cancer cell lines used in this study were purchased from ATCC and cultured in accordance with ATCC's instructions. H-RasV12-ER was activated by exposing the BJ-derived fibroblasts to 4-OHT (100 nM, Sigma-Aldrich). Three different sets of siRNAs were used in this study to target PI5P4K isoform DNA sequences as follows:
Cell death was assessed via Annexin V and/or PI (propidium iodide) staining according to the manufacturer's instructions (eBioscience). Cell growth arrest was assessed by direct measurement of DNA synthesis through incorporation of the nucleoside analog bromodeoxyuridine (BrdU). Briefly, BrdU (30 μM, Sigma-Aldrich) was added for 2 h before harvesting cells. […] Stained cells were analyzed by MACSQuant (MACS). […] The percentage of Annexin V/PI- or BrdU-positive cells was quantified using Flow Jo software (Becton Dickinson). Where indicated, the combined activity of caspase-3/7 was determined using the caspase-Glo 3/7 Assay Kit (Promega) and normalized to the number of viable cells as determined by MTT assay.

SNU1750 = assay: MTT cytotoxicity test (GI50); assay type: cell-based; details: Homo sapiens; SNU1750, cancer, gastric; MTT 72 h
SNU1 = assay: MTT cytotoxicity test (GI50); assay type: cell-based; details: Homo sapiens; SNU1, cancer, gastric; MTT 72 h
AZ521 = assay: MTT cytotoxicity test (GI50); assay type: cell-based; details: Homo sapiens, AZ-521; AZ521, cancer, gastric; MTT 72 h
[2] = molecular target: T1, Isoform 2 of Ferrochelatase, mitochondrial (Homo sapiens, UniProt P22830); assay: MS-CETSA in normal BJ cell lysates; assay type: binding; details: Uniprot P22830-2, lysate, 100 μM compound
T1 construct: After collecting data covering >8,000 proteins in lysates of normal BJ cells; endogenous in cells; host or cells: normal BJ cells (hTert-immortalised human foreskin fibroblasts), lysate
T1 sequence (P22830 55-429 isoform P22830-2 limits assumed): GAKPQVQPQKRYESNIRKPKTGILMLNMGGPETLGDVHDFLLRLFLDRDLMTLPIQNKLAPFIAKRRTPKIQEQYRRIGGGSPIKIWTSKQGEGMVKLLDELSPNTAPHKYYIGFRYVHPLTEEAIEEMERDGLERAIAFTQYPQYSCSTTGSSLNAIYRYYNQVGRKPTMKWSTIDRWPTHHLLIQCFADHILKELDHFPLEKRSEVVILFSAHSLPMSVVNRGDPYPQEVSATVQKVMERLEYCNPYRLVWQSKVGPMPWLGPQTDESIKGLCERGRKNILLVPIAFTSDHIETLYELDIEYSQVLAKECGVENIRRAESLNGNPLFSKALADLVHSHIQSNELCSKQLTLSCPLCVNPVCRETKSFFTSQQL
Description: (§1) Target identification was performed by cellular thermal shift assay (CETSA) coupled with quantitative mass spectrometry. In brief, normal BJ cells were lysed by combination of freeze/thaw and mechanical shearing with needle in buffer [50 mM HEPES (pH 7.5), 5 mM β-glycerophosphate, 0.1 mM Sodium Vanadate, 10 mM MgCl2, 1 mM TCEP and 1× Protease inhibitor Cocktail]. The cell debris was removed by centrifugation at 20,000 g for 20 min at 4° C. […] Each lysate was divided into 10 aliquots for heat treatment at the respective temperatures for 3 min in a 96-well thermocycler, followed by 3 min at 4° C. The lysate was centrifuged at 20,000 g for 20 min at 4° C. and the supernatant was transferred into microtubes for MS sample preparation.
(§2) After lysis, at least 100 μg of the protein (measured with a BCA assay) was subjected to reduction, denaturation and alkylation. Samples were subsequently incubated with sequencing grade LysC (Wako) and trypsin (Promega) for digestion overnight at 37° C. The digested samples were dried using a centrifugal vacuum evaporator, solubilized in 100 mM TEAB. […]
(§3) Proteins for which a low temperature plateau was not present were deleted using a cut off >0.85 for the average reading of the first three temperature points (in our experience proteins melting already at −37° C. are more prone to give false positives in a shift analysis).

normal BJ cells = assay: γ-H2AX immunofluorescence (DNA damage); assay type: cell-based, human; details: 48 h; a131 2.5 and 5 μM, etoposide 100 μM
Description: For immunofluorescence analysis, cells grown on coverglass-bottom chamber slides (Lab-Tek) were fixed with 4% PFA (paraformaldehyde) for 15 min at 25° C. The fixed cells were permeabilized with 0.5% Triton X-100 and exposed to TBS containing 0.1% Triton X-100 and 2% BSA (AbDil). The following primary antibodies were diluted in PBS containing 1% BSA and 0.1% Triton X-100: anti-γ-tubulin (Sigma-Aldrich, #T6557; 1:1000) and anti-β-tubulin (Abcam, #ab18207; 1:2000). […] Cells were counterstained with DAPI (Thermo Scientific). […] For time-lapse live-cell analysis, a Stage Top Incubator with Digital CO2 mixer (Tokai) was used, and images were acquired at 37° C.

A549 = assay: MTT cytotoxicity test (GI50); assay type: cell-based; details: Homo sapiens; A549, cancer, others, lung; MTT 72 h
SCH = assay: MTT cytotoxicity test (GI50); assay type: cell-based; details: Homo sapiens, cancer, gastric, MTT 72 h
SNU620 = assay: MTT cytotoxicity test (GI50); assay type: cell-based; details: Homo sapiens; SNU620, cancer, gastric; MTT 72 h
transformed BJ cells = assay: Time-lapse live-cell imaging and immunofluorescence of mitosis; assay type: cell-based, human; details: 2.5 μM
Description: For immunofluorescence analysis, cells grown on coverglass-bottom chamber slides (Lab-Tek) were fixed with 4% PFA (paraformaldehyde) for 15 min at 25° C. The fixed cells were permeabilized with 0.5% Triton X-100 and exposed to TBS containing 0.1% Triton X-100 and 2% BSA (AbDil). The following primary antibodies were diluted in PBS containing 1% BSA and 0.1% Triton X-100: anti-γ-tubulin (Sigma-Aldrich, #T6557; 1:1000) and anti-β-tubulin (Abcam, #ab18207; 1:2000). Isotype-specific secondary antibodies (1:500 dilution) coupled to Alexa Fluor 488, 594, or Cy5 (Molecular Probes) were used. Cells were counterstained with DAPI (Thermo Scientific). Images were acquired at RT with 3D-SIM mode using a Super Resolution Microscope (Nikon) equipped with an iXon EM+885 EMCCD camera (Andor) mounted on a Nikon Eclipse Ti-E inverted microscope with a CFI Apo TIRF (100×/1.40 oil) objective and processed with the NIS-Elements AR software. For time-lapse live-cell analysis, a Stage Top Incubator with Digital CO2 mixer (Tokai) was used, and images were acquired at 37° C.

WI38 = assay: MTT cytotoxicity test (GI50); assay type: cell-based; details: Homo sapiens, WI-38; WI38, normal, lung; MTT 72 h
[3] = molecular target: T2, Isoform 3 of Cleavage and polyadenylation specificity factor subunit 7 (Homo sapiens, UniProt Q8N684); assay: MS-CETSA in normal BJ cell lysates; assay type: binding; details: Uniprot Q8N684-3, lysate, 100 μM compound
T2 construct: After collecting data covering >8,000 proteins in lysates of normal BJ cells; endogenous in cells; host or cells: normal BJ cells, lysate
T2 sequence (Q8N684 1-514 isoform Q8N684-3): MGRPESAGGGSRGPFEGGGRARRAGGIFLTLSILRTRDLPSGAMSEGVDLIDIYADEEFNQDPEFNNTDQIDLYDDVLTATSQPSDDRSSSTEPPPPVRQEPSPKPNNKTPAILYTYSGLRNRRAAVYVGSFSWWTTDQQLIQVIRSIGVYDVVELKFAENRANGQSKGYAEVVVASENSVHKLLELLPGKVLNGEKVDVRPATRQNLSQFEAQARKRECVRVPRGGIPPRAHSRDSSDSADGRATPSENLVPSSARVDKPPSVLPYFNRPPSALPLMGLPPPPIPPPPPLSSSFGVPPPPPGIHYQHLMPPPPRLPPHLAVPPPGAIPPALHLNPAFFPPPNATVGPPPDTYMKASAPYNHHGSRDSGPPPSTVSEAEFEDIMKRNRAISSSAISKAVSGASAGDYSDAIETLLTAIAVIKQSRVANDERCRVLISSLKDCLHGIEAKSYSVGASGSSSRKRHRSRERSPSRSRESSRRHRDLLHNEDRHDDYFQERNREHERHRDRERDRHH
Description: as §1, §2, §3

MKN45 = assay: MTT cytotoxicity test (GI50); assay type: cell-based; details: Homo sapiens, MKN-45; MKN45, cancer, gastric; MTT 72 h
[4] = molecular target: T3, Retinal rod rhodopsin-sensitive cGMP 3′,5′-cyclic phosphodiesterase subunit delta (Homo sapiens, UniProt O43924); assay: MS-CETSA in normal BJ cell lysates; assay type: binding; details: lysate, 100 μM compound
T3 construct: After collecting data covering >8,000 proteins in lysates of normal BJ cells; endogenous in cells; host or cells: normal BJ cells, lysate
T3 sequence (O43924 whole entry): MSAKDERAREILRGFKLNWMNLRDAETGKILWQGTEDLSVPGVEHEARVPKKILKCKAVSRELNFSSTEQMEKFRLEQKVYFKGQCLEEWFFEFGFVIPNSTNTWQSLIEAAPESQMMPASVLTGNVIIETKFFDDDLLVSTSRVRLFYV
Description: as §1, §2, §3

[5] = molecular target: T4, AP-3 complex subunit sigma-1 (Homo sapiens, UniProt Q92572); assay: MS-CETSA in normal BJ cell lysates; assay type: binding; details: lysate, 100 μM compound
T4 construct: After collecting data covering >8,000 proteins in lysates of normal BJ cells; endogenous in cells; host or cells: normal BJ cells, lysate
T4 sequence (Q92572 whole entry): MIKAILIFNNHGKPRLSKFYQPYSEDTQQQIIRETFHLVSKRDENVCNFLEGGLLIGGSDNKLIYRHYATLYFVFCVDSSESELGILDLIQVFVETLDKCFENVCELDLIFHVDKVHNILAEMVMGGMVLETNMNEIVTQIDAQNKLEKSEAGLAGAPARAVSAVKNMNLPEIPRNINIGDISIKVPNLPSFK
T4 sequence (O14617 whole entry partner): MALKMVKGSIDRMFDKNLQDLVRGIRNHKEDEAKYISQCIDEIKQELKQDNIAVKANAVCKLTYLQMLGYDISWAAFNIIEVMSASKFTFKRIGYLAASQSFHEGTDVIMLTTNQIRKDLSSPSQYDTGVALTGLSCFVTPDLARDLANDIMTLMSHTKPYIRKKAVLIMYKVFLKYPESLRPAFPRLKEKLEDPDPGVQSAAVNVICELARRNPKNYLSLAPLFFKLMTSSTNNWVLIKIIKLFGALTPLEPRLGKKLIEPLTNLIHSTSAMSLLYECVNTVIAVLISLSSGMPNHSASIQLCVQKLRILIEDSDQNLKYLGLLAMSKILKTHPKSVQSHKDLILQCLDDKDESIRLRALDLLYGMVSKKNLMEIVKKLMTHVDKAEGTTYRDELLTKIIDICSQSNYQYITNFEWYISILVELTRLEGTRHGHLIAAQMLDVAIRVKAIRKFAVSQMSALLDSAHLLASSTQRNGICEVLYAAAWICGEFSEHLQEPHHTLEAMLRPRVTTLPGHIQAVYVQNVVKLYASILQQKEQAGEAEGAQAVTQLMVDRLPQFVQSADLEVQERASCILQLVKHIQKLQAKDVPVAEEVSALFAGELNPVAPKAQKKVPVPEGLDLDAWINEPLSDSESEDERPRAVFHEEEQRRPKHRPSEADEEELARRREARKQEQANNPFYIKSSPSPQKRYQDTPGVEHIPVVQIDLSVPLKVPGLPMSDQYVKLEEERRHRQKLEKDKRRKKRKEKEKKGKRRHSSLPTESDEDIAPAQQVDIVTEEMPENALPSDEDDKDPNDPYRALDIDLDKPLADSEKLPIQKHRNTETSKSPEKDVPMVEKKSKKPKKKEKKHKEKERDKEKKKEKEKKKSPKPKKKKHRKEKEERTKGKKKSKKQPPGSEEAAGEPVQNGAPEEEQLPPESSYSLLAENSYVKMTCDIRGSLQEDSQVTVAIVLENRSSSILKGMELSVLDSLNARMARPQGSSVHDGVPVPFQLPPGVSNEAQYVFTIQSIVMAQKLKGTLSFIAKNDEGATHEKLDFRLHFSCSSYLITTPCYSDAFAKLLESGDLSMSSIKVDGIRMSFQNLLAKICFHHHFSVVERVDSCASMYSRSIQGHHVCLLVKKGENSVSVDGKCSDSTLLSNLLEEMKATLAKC
T4 sequence (O00203 whole entry partner): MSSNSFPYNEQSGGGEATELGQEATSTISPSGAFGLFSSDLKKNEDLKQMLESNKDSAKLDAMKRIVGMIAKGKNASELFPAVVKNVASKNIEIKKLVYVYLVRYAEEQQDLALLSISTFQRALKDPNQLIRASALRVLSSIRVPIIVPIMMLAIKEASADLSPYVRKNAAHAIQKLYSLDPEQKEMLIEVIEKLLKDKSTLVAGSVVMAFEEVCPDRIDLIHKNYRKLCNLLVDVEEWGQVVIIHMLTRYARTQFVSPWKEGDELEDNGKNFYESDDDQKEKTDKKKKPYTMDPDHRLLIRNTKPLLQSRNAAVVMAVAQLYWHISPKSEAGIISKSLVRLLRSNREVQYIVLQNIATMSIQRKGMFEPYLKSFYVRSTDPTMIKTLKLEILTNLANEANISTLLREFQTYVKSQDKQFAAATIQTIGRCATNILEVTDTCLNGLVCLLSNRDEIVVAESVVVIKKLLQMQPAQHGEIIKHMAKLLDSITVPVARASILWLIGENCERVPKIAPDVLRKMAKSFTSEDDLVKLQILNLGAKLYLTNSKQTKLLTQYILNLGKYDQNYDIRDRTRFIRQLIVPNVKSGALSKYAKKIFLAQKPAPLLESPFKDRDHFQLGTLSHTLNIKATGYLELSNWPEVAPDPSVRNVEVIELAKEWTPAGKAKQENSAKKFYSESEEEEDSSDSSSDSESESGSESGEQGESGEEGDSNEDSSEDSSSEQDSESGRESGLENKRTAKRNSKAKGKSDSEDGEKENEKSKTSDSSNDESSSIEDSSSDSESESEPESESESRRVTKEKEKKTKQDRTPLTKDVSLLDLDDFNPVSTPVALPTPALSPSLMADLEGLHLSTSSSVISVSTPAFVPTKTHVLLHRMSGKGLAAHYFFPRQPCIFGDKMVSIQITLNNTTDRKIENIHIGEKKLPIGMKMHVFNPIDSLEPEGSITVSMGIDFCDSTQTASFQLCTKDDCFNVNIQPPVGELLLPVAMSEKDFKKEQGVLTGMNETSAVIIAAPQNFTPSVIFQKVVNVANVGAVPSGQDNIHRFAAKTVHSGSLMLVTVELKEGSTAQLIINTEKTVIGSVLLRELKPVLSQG
T4 sequence (Q9Y2T2 whole entry partner): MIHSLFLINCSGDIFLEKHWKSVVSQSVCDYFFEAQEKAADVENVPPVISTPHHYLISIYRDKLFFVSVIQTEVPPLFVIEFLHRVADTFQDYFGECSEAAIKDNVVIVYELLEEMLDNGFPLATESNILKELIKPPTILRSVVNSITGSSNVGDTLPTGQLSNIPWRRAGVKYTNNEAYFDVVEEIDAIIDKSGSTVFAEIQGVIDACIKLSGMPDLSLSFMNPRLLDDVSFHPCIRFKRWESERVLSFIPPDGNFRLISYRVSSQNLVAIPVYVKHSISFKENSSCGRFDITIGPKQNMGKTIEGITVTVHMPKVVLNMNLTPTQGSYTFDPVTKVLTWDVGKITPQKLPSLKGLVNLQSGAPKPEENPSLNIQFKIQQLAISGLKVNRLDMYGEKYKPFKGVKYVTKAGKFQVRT
Description: as §1, §2, §3

N#C/C(=C\c1cccc2cnccc12)c1c[nH]c2ccccc12 [a131, (Z)-2-(1H-indol-3-yl)-3-(5-isoquinolyl)prop-2-enenitrile]
a131-induced cell death after 4-OHT-induced activation of H-RasV12-ER [1]: sufficient to sensitize normal BJ cells to a131-induced cell death
GI50 (SNU1750): 700 nM
GI50 (SNU1): 900 nM
GI50 (AZ521): 2400 nM
ED score [2]: 0.8366
ΔTm at 100 µM ([2]; read-out: mean Delta Tm): 3.81 °C
DNA damage (γ-H2AX staining) (normal BJ cells): did not do so
GI50 (A549): 2000 nM
GI50 (SCH): 1700 nM
GI50 (SNU620): 1000 nM
mitotic arrest (time-lapse analysis) (transformed BJ cells): immediately induced mitotic arrest in transformed BJ cells
centrosome de-clustering and multipolar mitotic spindles (transformed BJ cells; 32 h): caused de-clustered centrosomes and multipolar mitotic-spindles in transformed BJ
GI50 (WI38): 3400 nM
ED score [3]: 0.3008
mean Delta Tm ([3]; in °C (unit assumed)): 1.653
GI50 (MKN45): 1000 nM
ED score [4]: 0.3092
ΔTm at 100 µM ([4]; read-out: mean Delta Tm): 3.02 °C
ED score [5]: 0.3486
ΔTm at 100 µM ([5]; read-out: mean Delta Tm): 2.26 °C
